# Laboratory results as given in patent US8748624B2, “Picolinamido-propanoic acid derivatives useful as glucagon receptor antagonists” (Janssen Pharmaceutica NV, priority 2011, dated 2014).
# Columns and labels:
# [1] = target: human glucagon receptor (GCGR) (Homo sapiens (Human), UniProt P47871); test: Inhibition of 125I-glucagon binding to membranes from HEK293 cells expressing the human glucagon receptor; conditions: membranes of hGluc-1 HEK cells, 125I-glucagon 0.3 nM, 2 hours room temperature; IC50 converted to Ki; average if tested more than once
# human glucagon receptor (GCGR), sequence (P47871 26-477): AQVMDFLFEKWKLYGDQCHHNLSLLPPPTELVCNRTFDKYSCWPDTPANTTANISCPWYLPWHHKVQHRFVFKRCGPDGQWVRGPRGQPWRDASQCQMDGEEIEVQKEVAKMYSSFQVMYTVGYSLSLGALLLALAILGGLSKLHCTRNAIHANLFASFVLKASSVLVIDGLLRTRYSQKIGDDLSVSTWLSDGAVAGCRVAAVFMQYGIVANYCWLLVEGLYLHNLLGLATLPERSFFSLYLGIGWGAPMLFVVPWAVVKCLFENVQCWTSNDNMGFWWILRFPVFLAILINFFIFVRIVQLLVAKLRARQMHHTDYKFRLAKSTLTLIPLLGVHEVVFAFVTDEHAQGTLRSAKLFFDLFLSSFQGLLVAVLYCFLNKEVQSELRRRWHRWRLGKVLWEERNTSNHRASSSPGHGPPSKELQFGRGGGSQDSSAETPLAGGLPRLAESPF
# Method in brief: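 Compound displacement of ¹²⁵I-glucagon (0.3 nM) was run for 2 h at room temperature in 50 mM HEPES pH 7.4 with 5 mM MgCl2, 1 mM CaCl2 and 0.2% BSA, using 6 μg/well membranes from stably transfected hGCGR HEK293 cells. Filter-bound counts gave IC50s, expressed as Ki.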
# human GCGR = human GCGR (Homo sapiens (Human), UniProt P47871); test: Cellular functional assay, cAMP readout (glucagon-stimulated cAMP in HEK293 cells expressing human GCGR); type: cell-based; conditions: hGluc-1 HEK cells, LANCE TR-FRET, IC50 converted to Ki, average if tested more than once
# human GCGR, sequence (P47871 26-477): as above
# Method in brief: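 HEK293 cells stably transfected with full-length human GCGR were exposed to compound for 30 min before a 5-min challenge with […] (final) glucagon. Readout was TR-FRET (LANCE) cAMP versus standard curve; IC50s fitted by non-linear regression and converted to Ki values.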
Compound,Ki [1] [nM],Ki (human GCGR) [nM]
"O=C(O)CCNC(=O)c1ccc(-c2cc(C(F)(F)F)c(Cl)cc2CNc2ccc(-c3ccc(Cl)cc3Cl)cc2)cn1 [Compound 82, 3-(5-(4-chloro-2-(((2′,4′-dichloro-[1,1′-biphenyl]-4-yl)amino)methyl)-5-(trifluoromethyl)phenyl)picolinamido)propanoic acid]",33.8,34.6
"O=C(O)CCNC(=O)c1ccc(-c2cc(Cl)ccc2CNc2ccc(-c3ccc(F)cc3)c(F)c2)cn1 [Compound 88, 3-(5-(5-chloro-2-(((2,4′-difluoro-[1,1′-biphenyl]-4-yl)amino)methyl)phenyl)picolinamido)propanoic acid]",44.3,370
"O=C(O)CCNC(=O)c1ccc(-c2cc(Cl)ccc2CNc2ccc(-c3ccc(C(F)(F)F)cc3)c(F)c2)cn1 [Compound 90, 3-(5-(5-chloro-2-(((2-fluoro-4′-(trifluoromethyl)-[1,1′-biphenyl]-4-yl)amino)methyl)phenyl)picolinamido)propanoic acid]",33.6,281
"O=C(O)CCNC(=O)c1ccc(-c2cc(Cl)ccc2CNc2ccc(-c3ccc(Cl)cc3)c(F)c2)cn1 [Compound 91, 3-(5-(5-chloro-2-(((4′-chloro-2-fluoro-[1,1′-biphenyl]-4-yl)amino)methyl)phenyl)picolinamido)propanoic acid]",33.4,295
"O=C(O)CCNC(=O)c1ccc(-c2cc(Cl)ccc2CNc2ccc(-c3ccc(Cl)cc3Cl)c(F)c2)cn1 [Compound 92, 3-(5-(5-chloro-2-(((2′,4′-dichloro-2-fluoro-[1,1′-biphenyl]-4-yl)amino)methyl)phenyl)picolinamido)propanoic acid]",19.4,114
"O=C(O)CCNC(=O)c1ccc(-c2cc(Cl)ccc2CNc2ccc(-c3ccc(Cl)c(F)c3)c(F)c2)cn1 [Compound 93, 3-(5-(5-chloro-2-(((4′-chloro-2,3′-difluoro-[1,1′-biphenyl]-4-yl)amino)methyl)phenyl)picolinamido)propanoic acid]",53.4,295
"O=C(O)CCNC(=O)c1ccc(-c2cc(F)c(F)cc2C(=O)Nc2ccc(-c3ccc(Cl)cc3Cl)cc2)cn1 [Compound 94, 3-(5-(2-((2′,4′-dichloro-[1,1′-biphenyl]-4-yl)carbamoyl)-4,5-difluorophenyl)picolinamido)propanoic acid]",33.5,78.5
"O=C(O)CCNC(=O)c1ccc(-c2cc(F)c(F)cc2C(=O)Nc2ccc(-c3ccc(F)cc3)cc2)cn1 [Compound 95, 3-(5-(4,5-difluoro-2-((4′-fluoro-[1,1′-biphenyl]-4-yl)carbamoyl)phenyl)picolinamido)propanoic acid]",139,600
"O=C(O)CCNC(=O)c1ccc(-c2cc(F)c(F)cc2C(=O)Nc2ccc(-c3ccc(C(F)(F)F)cc3)cc2)cn1 [Compound 96, 3-(5-(4,5-difluoro-2-((4′-(trifluoromethyl)-[1,1′-biphenyl]-4-yl)carbamoyl)phenyl)picolinamido)propanoic acid]",33.8,176
"O=C(O)CCNC(=O)c1ccc(-c2cc(F)c(F)cc2C(=O)Nc2ccc(-c3ccc(Cl)cc3)cc2)cn1 [Compound 97, 3-(5-(2-((4′-chloro-[1,1′-biphenyl]-4-yl)carbamoyl)-4,5-difluorophenyl)picolinamido)propanoic acid]",57.4,225
"O=C(O)CCNC(=O)c1ccc(-c2cc(F)c(F)cc2CNc2ccc(-c3ccc(F)c(C(F)(F)F)c3)c(Cl)c2)cn1 [Compound 102, 3-(5-(2-(((2-chloro-4′-fluoro-3′-(trifluoromethyl)-[1,1′-biphenyl]-4-yl)amino)methyl)-4,5-difluorophenyl)picolinamido)propanoic acid]",21.3,41.8
"O=C(O)CCNC(=O)c1ccc(-c2cc(F)c(F)cc2CNc2ccc(-c3ccc(Cl)c(C(F)(F)F)c3)c(Cl)c2)cn1 [Compound 106, 3-(5-(2-(((2,4′-dichloro-3′-(trifluoromethyl)-[1,1′-biphenyl]-4-yl)amino)methyl)-4,5-difluorophenyl)picolinamido)propanoic acid]",26.1,320
"O=C(O)CCNC(=O)c1ccc(-c2cc(F)c(F)cc2CNc2ccc(-c3cccc(C(F)(F)F)c3Cl)c(Cl)c2)cn1 [Compound 107, 3-(5-(2-(((2,2′-dichloro-3′-(trifluoromethyl)-[1,1′-biphenyl]-4-yl)amino)methyl)-4,5-difluorophenyl)picolinamido)propanoic acid]",23.7,54.8
"O=C(O)CCNC(=O)c1ccc(-c2cc(F)c(F)cc2CNc2ccc(-c3ccc(Cl)cc3)cc2)cn1 [Compound 117, 3-(5-(2-(((4′-chloro-[1,1′-biphenyl]-4-yl)amino)methyl)-4,5-difluorophenyl)picolinamido)propanoic acid]",43.5,160
"O=C(O)CCNC(=O)c1ccc(-c2cc(F)c(F)cc2CNc2ccc(-c3ccc(Cl)cc3Cl)cc2)cn1 [Compound 118, 3-(5-(2-(((2′,4′-dichloro-[1,1′-biphenyl]-4-yl)amino)methyl)-4,5-difluorophenyl)picolinamido)propanoic acid]",67.8,120

# Further lines, results first:
Ki [1] [nM],Ki (human GCGR) [nM],Compound
60.6,550,"O=C(O)CCNC(=O)c1ccc(-c2cc(Cl)ccc2CNc2ccc(-c3ccc(F)cc3F)c(F)c2)cn1 [Compound 89, 3-(5-(5-chloro-2-(((2,2′,4′-trifluoro-[1,1′-biphenyl]-4-yl)amino)methyl)phenyl)picolinamido)propanoic acid]"
22.9,68.9,"O=C(O)CCNC(=O)c1ccc(-c2cc(F)c(F)cc2CNc2ccc(-c3ccc(Cl)cc3)c(Cl)c2)cn1 [Compound 103, 3-(5-(2-(((2,4′-dichloro-[1,1′-biphenyl]-4-yl)amino)methyl)-4,5-difluorophenyl)picolinamido)propanoic acid]"
25.4,84.4,"O=C(O)CCNC(=O)c1ccc(-c2cc(F)c(F)cc2CNc2ccc(-c3ccc(Cl)cc3F)c(Cl)c2)cn1 [Compound 104, 3-(5-(2-(((2,4′-dichloro-2′-fluoro-[1,1′-biphenyl]-4-yl)amino)methyl)-4,5-difluorophenyl)picolinamido)propanoic acid]"
33,255,"Cc1ccc(-c2ccc(NCc3cc(F)c(F)cc3-c3ccc(C(=O)NCCC(=O)O)nc3)cc2Cl)c(F)c1 [Compound 105, 3-(5-(2-(((2-chloro-2′-fluoro-4′-methyl-[1,1′-biphenyl]-4-yl)amino)methyl)-4,5-difluorophenyl)picolinamido)propanoic acid]"
23.9,84.9,"O=C(O)CCNC(=O)c1ccc(-c2cc(F)c(F)cc2CNc2ccc(-c3ccc(Cl)cc3Cl)c(Cl)c2)cn1 [Compound 108, 3-(5-(4,5-difluoro-2-(((2,2′,4′-trichloro-[1,1′-biphenyl]-4-yl)amino)methyl)phenyl)picolinamido)propanoic acid]"
30.4,115,"N#Cc1cc(NCc2cc(F)c(F)cc2-c2ccc(C(=O)NCCC(=O)O)nc2)ccc1-c1ccc(F)c(C(F)(F)F)c1 [Compound 109, 3-(5-(2-(((2-cyano-4′-fluoro-3′-(trifluoromethyl)-[1,1′-biphenyl]-4-yl)amino)methyl)-4,5-difluorophenyl)picolinamido)propanoic acid]"
43.5,170,"N#Cc1cc(NCc2cc(F)c(F)cc2-c2ccc(C(=O)NCCC(=O)O)nc2)ccc1-c1ccc(Cl)cc1 [Compound 110, 3-(5-(2-(((4′-chloro-2-cyano-[1,1′-biphenyl]-4-yl)amino)methyl)-4,5-difluorophenyl)picolinamido)propanoic acid]"
69.6,180,"N#Cc1cc(NCc2cc(F)c(F)cc2-c2ccc(C(=O)NCCC(=O)O)nc2)ccc1-c1ccc(Cl)cc1F [Compound 111, 3-(5-(2-(((4′-chloro-2-cyano-2′-fluoro-[1,1′-biphenyl]-4-yl)amino)methyl)-4,5-difluorophenyl)picolinamido)propanoic acid]"
76.5,280,"Cc1ccc(-c2ccc(NCc3cc(F)c(F)cc3-c3ccc(C(=O)NCCC(=O)O)nc3)cc2C#N)c(F)c1 [Compound 112, 3-(5-(2-(((2-cyano-2′-fluoro-4′-methyl-[1,1′-biphenyl]-4-yl)amino)methyl)-4,5-difluorophenyl)picolinamido)propanoic acid]"
58.3,650,"N#Cc1cc(NCc2cc(F)c(F)cc2-c2ccc(C(=O)NCCC(=O)O)nc2)ccc1-c1ccc(Cl)c(C(F)(F)F)c1 [Compound 113, 3-(5-(2-(((4′-chloro-2-cyano-3′-(trifluoromethyl)-[1,1′-biphenyl]-4-yl)amino)methyl)-4,5-difluorophenyl)picolinamido)propanoic acid]"
40.4,73.5,"N#Cc1cc(NCc2cc(F)c(F)cc2-c2ccc(C(=O)NCCC(=O)O)nc2)ccc1-c1ccc(Cl)cc1Cl [Compound 114, 3-(5-(2-(((2′,4′-dichloro-2-cyano-[1,1′-biphenyl]-4-yl)amino)methyl)-4,5-difluorophenyl)picolinamido)propanoic acid]"
95.7,500,"Cc1cc(-c2ccc(NCc3cc(F)c(F)cc3-c3ccc(C(=O)NCCC(=O)O)nc3)cc2C#N)ccc1F [Compound 115, 3-(5-(2-(((2-cyano-4′-fluoro-3′-methyl-[1,1′-biphenyl]-4-yl)amino)methyl)-4,5-difluorophenyl)picolinamido)propanoic acid]"
